In patent US9409908B2 (priority 2012, dated 2016):
Where a name gives a salt, the structure may show the parent alone.

target: purified human Factor XIa (Homo sapiens (Human), UniProt P03951); assay: biochemical; assay type: biochemical; conditions: TFA salt; read-out: Factor XIa Ki
Sequence (P03951 whole entry, looked up): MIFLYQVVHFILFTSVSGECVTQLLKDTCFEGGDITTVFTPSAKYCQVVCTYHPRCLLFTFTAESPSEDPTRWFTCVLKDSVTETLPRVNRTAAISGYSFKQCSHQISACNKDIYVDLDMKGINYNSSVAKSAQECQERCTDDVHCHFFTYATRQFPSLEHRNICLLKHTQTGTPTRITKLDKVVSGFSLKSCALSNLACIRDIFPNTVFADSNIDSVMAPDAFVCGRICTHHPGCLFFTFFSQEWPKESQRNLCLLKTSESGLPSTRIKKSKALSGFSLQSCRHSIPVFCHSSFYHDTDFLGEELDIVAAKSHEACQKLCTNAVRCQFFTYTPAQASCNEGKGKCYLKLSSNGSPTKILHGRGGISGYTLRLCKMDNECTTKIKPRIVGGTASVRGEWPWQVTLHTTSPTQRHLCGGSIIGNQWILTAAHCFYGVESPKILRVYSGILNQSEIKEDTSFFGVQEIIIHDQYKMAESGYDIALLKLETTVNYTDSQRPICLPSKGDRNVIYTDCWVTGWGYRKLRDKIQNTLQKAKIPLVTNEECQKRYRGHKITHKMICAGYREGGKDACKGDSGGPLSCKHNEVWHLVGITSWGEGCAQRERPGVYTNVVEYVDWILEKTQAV
Sequence (P03951 whole entry partner, looked up): as the sequence (P03951 whole entry, looked up) above

CC1CCCC(N2CCC(c3c(F)ccc(Cl)c3F)=CC2=O)c2cc(ccn2)-c2ccc(C#N)cc2NC1=O (stereo in doubt) [Example 23, (14R)-14-[4-(3-Chloro-2,6-difluorophenyl)-6-oxo-1,2,3,6-tetrahydropyridin-1-yl]-10-methyl-9-oxo-8,16-diazatricyclo[13.3.1.0^2,7]nonadeca-1(18),2,4,6,15(19),16-hexaene-5-carbonitrile, TFA salt] showed a Ki of 93.2 nM.

same assay, conditions: read-out: Factor XIa Ki

Going from C[C@@H]1CCC[C@H](N2CCC(c3c(F)ccc(Cl)c3F)=CC2=O)c2cc(ccn2)-c2ccc(N)cc2NC1=O [Example 12, (10R,14S)-5-Amino-14-[4-(3-chloro-2,6-difluorophenyl)-6-oxo-1,2,3,6-tetrahydropyridin-1-yl]-10-methyl-8,16-diazatricyclo[13.3.1.0^2,7]nonadeca-1(19),2,4,6,15,17-hexaen-9-one] to C[C@@H]1CCC[C@H](N2CCC(c3c(F)ccc(Cl)c3F)=CC2=O)c2cc(ccn2)-c2ccc(F)cc2NC1=O [Example 14, (10R,14S)-14-[4-(3-Chloro-2,6-difluorophenyl)-6-oxo-1,2,3,6-tetrahydropyridin-1-yl]-5-fluoro-10-methyl-8,16-diazatricyclo[13.3.1.0^2,7]nonadeca-1(19),2,4,6,15,17-hexaen-9-one, TFA salt], the Ki rises from 1.5 nM to 34.8 nM (23-fold). The first binds more tightly here.

First: C[C@@H]1CCC[C@H](N2CCC(c3c(F)ccc(Cl)c3F)=CC2=O)c2cc(ccn2)-c2ccc(O)cc2NC1=O [Example 18, (10R,14S)-14-[4-(3-Chloro-2,6-difluorophenyl)-6-oxo-1,2,3,6-tetrahydropyridin-1-yl]-5-hydroxy-10-methyl-8,16-diazatricyclo[13.3.1.0^2,7]nonadeca-1(19),2,4,6,15,17-hexaen-9-one, TFA salt]
Second: CC(=O)Nc1ccc2c(c1)NC(=O)[C@H](C)CCC[C@H](N1CCC(c3c(F)ccc(Cl)c3F)=CC1=O)c1cc-2ccn1 [Example 75, N-[(10R,14S)-14-[4-(3-Chloro-2,6-difluorophenyl)-6-oxo-1,2,3,6-tetrahydropyridin-1-yl]-10-methyl-9-oxo-8,16-diazatricyclo[13.3.1.0^2,7]nonadeca-1(19),2(7),3,5,15,17-hexaen-5-yl]acetamide, TFA salt]
The Ki of the first is 2.8-fold lower: 1.25 nM for the first, 3.54 nM for the second.

CC(=O)c1ccc(Cl)c(F)c1C1=CC(=O)N([C@H]2CCCC(C)C(=O)Nc3cc(C(N)=O)ccc3-c3ccnc2c3)CC1 (stereo partly drawn) [Example 34, (14S)-14-[4-(6-Acetyl-3-chloro-2-fluorophenyl)-6-oxo-1,2,3,6-tetrahydropyridin-1-yl]-10-methyl-9-oxo-8,16-diazatricyclo[13.3.1.0^2,7]nonadeca-1(19),2,4,6,15,17-hexaene-5-carboxamide, TFA salt] and CC(=O)c1ccc(Cl)c(F)c1C1=CC(=O)N([C@H]2CCC[C@@H](C)C(=O)Nc3ccccc3-c3ccnc2c3)CC1 [Example 48, (10R,14S)-14-[4-(6-Acetyl-3-chloro-2-fluorophenyl)-6-oxo-1,2,3,6-tetrahydropyridin-1-yl]-10-methyl-8,16-diazatricyclo[13.3.1.0^2,7]nonadeca-1(19),2,4,6,15,17-hexaen-9-one, TFA salt] are within 1.5-fold of each other in Ki: 4.17 nM for the first, 4.77 nM for the second.

First: CC1CCC[C@H](N2CCC(c3cccc(Cl)c3F)=CC2=O)c2cc(ccn2)-c2ccc(C(N)=O)cc2NC1=O (stereo partly drawn) [Example 35, (14S)-14-[4-(3-Chloro-2-fluorophenyl)-6-oxo-1,2,3,6-tetrahydropyridin-1-yl]-10-methyl-9-oxo-8,16-diazatricyclo[13.3.1.0^2,7]nonadeca-1(19),2,4,6,15,17-hexaene-5-carboxamide, TFA salt]
Second: C[C@@H]1CCC[C@H](N2CCC(c3c(C(F)(F)F)ccc(Cl)c3F)=CC2=O)c2cc(ccn2)-c2ccccc2NC1=O [Example 67, (10R,14S)-14-{4-[3-Chloro-2-fluoro-6-(trifluoromethyl)phenyl]-6-oxo-1,2,3,6-tetrahydropyridin-1-yl}-10-methyl-8,16-diazatricyclo[13.3.1.0^2,7]nonadeca-1(19),2(7),3,5,15,17-hexaen-9-one, TFA salt]
The Ki of the first is 35-fold higher: 104 nM for the first, 2.98 nM for the second.

Going from CCOC(=O)Cc1nnc(Nc2ccc3c(c2)NC(=O)[C@H](C)CCC[C@H](N2CCC(c4c(F)ccc(Cl)c4F)=CC2=O)c2cc-3ccn2)o1 [Example 42, Ethyl 2-(5-{[(10R,14S)-14-[4-(3-chloro-2,6-difluorophenyl)-6-oxo-1,2,3,6-tetrahydropyridin-1-yl]-10-methyl-9-oxo-8,16-diazatricyclo[13.3.1.0^2,7]nonadeca-1(19),2,4,6,15,17-hexaen-5-yl]amino}-1,3,4-oxadiazol-2-yl)acetate, TFA salt] to C[C@@H]1CCC[C@H](N2CCC(c3c(F)ccc(Cl)c3F)=CC2=O)c2cc(ccn2)-c2ccc(Nc3nnc(-c4ccco4)o3)cc2NC1=O [Example 103, (10R,14S)-14-[4-(3-Chloro-2,6-difluorophenyl)-6-oxo-1,2,3,6-tetrahydropyridin-1-yl]-5-{[5-(furan-2-yl)-1,3,4-oxadiazol-2-yl]amino}-10-methyl-8,16-diazatricyclo[13.3.1.0^2,7]nonadeca-1(19),2(7),3,5,15,17-hexaen-9-one, TFA salt], the Ki rises from 0.45 nM to 6.13 nM (14-fold).

First: COC(=O)Nc1ccc2c(c1)NC(=O)[C@H](C)CCC[C@H](N1CCC(c3cc(Cl)ccc3OC(F)F)=CC1=O)c1cc-2ccn1 [Example 44, Methyl N-[(10R,14S)-14-{4-[5-chloro-2-(difluoromethoxy)phenyl]-6-oxo-1,2,3,6-tetrahydropyridin-1-yl}-10-methyl-9-oxo-8,16-diazatricyclo[13.3.1.0^2,7]nonadeca-1(19),2,4,6,15,17-hexaen-5-yl]carbamate, TFA salt]
Second: COC(=O)Nc1ccc2c(c1)NC(=O)[C@H](C)CCC[C@H](N1CCC(c3cncn3C)=CC1=O)c1cc-2ccn1 [Example 97, Methyl N-[(10R,14S)-10-methyl-14-[4-(1-methyl-1H-imidazol-5-yl)-6-oxo-1,2,3,6-tetrahydropyridin-1-yl]-9-oxo-8,16-diazatricyclo[13.3.1.0^2,7]nonadeca-1(19),2,4,6,15,17-hexaen-5-yl]carbamate, 2 TFA salt]
The Ki of the first is lower: 0.13 nM for the first, > 408 nM for the second.

First: C[C@@H]1CCC[C@H](N2CCC(c3c(F)ccc(Cl)c3F)=CC2=O)c2cc(ccn2)-c2ccc(NC(=O)OCCOC(C)(C)C)cc2NC1=O [Example 53, 2-(tert-Butoxy)ethyl N-[(10R,14S)-14-[4-(3-chloro-2,6-difluorophenyl)-6-oxo-1,2,3,6-tetrahydropyridin-1-yl]-10-methyl-9-oxo-8,16-diazatricyclo[13.3.1.0^2,7]nonadeca-1(19),2,4,6,15,17-hexaen-5-yl]carbamate, TFA salt]
Second: C[C@@H]1CCC[C@H](N2CCC(c3c(F)ccc(Cl)c3F)=CC2=O)c2cc(ccn2)-c2ccc(NC(=O)CC(=O)OC(C)(C)C)cc2NC1=O [Example 87, tert-Butyl 2-{[(10R,14S)-14-[4-(3-chloro-2,6-difluorophenyl)-6-oxo-1,2,3,6-tetrahydropyridin-1-yl]-10-methyl-9-oxo-8,16-diazatricyclo[13.3.1.0^2,7]nonadeca-1(19),2,4,6,15,17-hexaen-5-yl]carbamoyl}acetate, TFA salt]
The Ki of the first is 220-fold lower: 0.08 nM for the first, 17.3 nM for the second.

Compared with C[C@@H]1CCC[C@H](N2CCC(c3c(F)ccc(Cl)c3F)=CC2=O)c2cc(ccn2)-c2cc(I)c(N)cc2NC1=O [Example 61, (10R,14S)-5-Amino-14-[4-(3-chloro-2,6-difluorophenyl)-6-oxo-1,2,3,6-tetrahydropyridin-1-yl]-4-iodo-10-methyl-8,16-diazatricyclo[13.3.1.0^2,7]nonadeca-1(19),2,4,6,15,17-hexaen-9-one, TFA salt], C[C@@H]1CCC[C@H](N2CCC(c3c(F)ccc(Cl)c3F)=CC2=O)c2cc(ccn2)-c2ccc(NS(C)(=O)=O)cc2NC1=O [Example 76, N-[(10R,14S)-14-[4-(3-Chloro-2,6-difluorophenyl)-6-oxo-1,2,3,6-tetrahydropyridin-1-yl]-10-methyl-9-oxo-8,16-diazatricyclo[13.3.1.0^2,7]nonadeca-1(19),2(7),3,5,15,17-hexaen-5-yl]methanesulfonamide, TFA salt] is 3.1-fold lower in Ki: 24.6 nM for the first, 7.89 nM for the second. The second binds more tightly here.

First: C[C@@H]1CCC[C@H](N2CCC(c3c(-n4cnnn4)ccc(Cl)c3F)=CC2=O)c2cc(ccn2)-c2ccccc2NC1=O [Example 68, (10R,14S)-14-{4-[3-Chloro-2-fluoro-6-(1H-1,2,3,4-tetrazol-1-yl)phenyl]-6-oxo-1,2,3,6-tetrahydropyridin-1-yl}-10-methyl-8,16-diazatricyclo[13.3.1.0^2,7]nonadeca-1(19),2(7),3,5,15,17-hexaen-9-one, TFA salt]
Second: CC(C)[C@@H]1CCC[C@H](N2CCC(c3c(-n4cnnn4)ccc(Cl)c3F)=CC2=O)c2cc(ccn2)-c2ccccc2NC1=O [Example 100, (10S,14S)-14-{4-[3-chloro-2-fluoro-6-(1H-1,2,3,4-tetrazol-1-yl)phenyl]-6-oxo-1,2,3,6-tetrahydropyridin-1-yl}-10-(propan-2-yl)-8,16-diazatricyclo[13.3.1.0^2,7]nonadeca-1(18),2,4,6,15(19),16-hexaen-9-one, TFA salt]
The Ki of the first is 1.8-fold lower: 0.05 nM for the first, 0.09 nM for the second.

C[C@@H]1CCC[C@H](n2ccc(-c3c(F)ccc(Cl)c3F)cc2=O)c2cc(ccn2)-c2ccc(N)cc2NC1=O [Example 91, (10R,14S)-5-Amino-14-[4-(3-chloro-2,6-difluorophenyl)-2-oxo-1,2-dihydropyridin-1-yl]-10-methyl-8,16-diazatricyclo[13.3.1.0^2,7]nonadeca-1(19),2,4,6,15,17-hexaen-9-one, 2 TFA salt] and C[C@@H]1CCC[C@H](n2ccc(-c3c(F)ccc(Cl)c3F)cc2=O)c2cc(ccn2)-c2ccc(Nc3ncccn3)cc2NC1=O [Example 92, (10R,14S)-14-[4-(3-Chloro-2,6-difluorophenyl)-2-oxo-1,2-dihydropyridin-1-yl]-10-methyl-5-[(pyrimidin-2-yl)amino]-8,16-diazatricyclo[13.3.1.0^2,7]nonadeca-1(19),2(7),3,5,15,17-hexaen-9-one, 2 TFA salt] are the same in Ki: 0.56 nM for the first, 0.56 nM for the second.

In the case of COC(=O)Nc1ccc2c(c1)NC(=O)[C@H](C)CCC[C@H](N1CCC(c3cncn3Cc3ccccc3)=CC1=O)c1cc-2ccn1 [Example 101, Methyl N-[(10R,14S)-14-[4-(1-benzyl-1H-imidazol-5-yl)-6-oxo-1,2,3,6-tetrahydropyridin-1-yl]-10-methyl-9-oxo-8,16-diazatricyclo[13.3.1.0^2,7]nonadeca-1(19),2,4,6,15,17-hexaen-5-yl]carbamate, bis TFA salt], the Ki is reported as > 434 nM.
